Key:
Type in all cases: cell-based
Aspc-1 cells [1] = assay: ADP-ribose level by ELISA in Aspc-1 cells; settings: 0.2-32 μM peptide, 24 hours
Method: (§1) The peptides of Examples 1 to 28 of the present disclosure are designed to inhibit the action of poly ADP-ribose degradation enzyme. In Experimental Example 1, it was confirmed through cell experiments whether poly ADP-ribose was inhibited from being degraded by each of the peptides and accumulated in cancer cells.
5×10^5 Aspc-1 cells were divided into a group not treated with the peptide of Example and a group treated with 0.2, 1, 2, 4, 8, 16, and 32 μM of the peptide of Example 3 (SEQ ID NO: 3), and cultured for 24 hours under conditions of 37° C. and 5% CO2 in RPMI-1640 medium supplemented with 10% FBS, 100 units/ml penicillin, and 100 μg/ml streptomycin. The medium of the cultured cells was removed, and the samples were treated with RIPA buffer and 1% SDS. The prepared supernatant was used for ELISA analysis to detect and analyze ADP-ribose.

Aspc-1 cells [2] = assay: Cell viability (MTT, photomicrographs) in Aspc-1 cells; settings: 16 μM peptide, 24 hours
Method: (§2) After culturing 3×10^3 Aspc-1 cells in a 96-well plate for 24 hours under conditions of 37° C. and 5% CO2, the cells were either untreated or treated with the peptides of Examples 1 to 28 at a concentration of 16 μM, respectively. Then, the cells were cultured for 24 hours under conditions of 37° C. and 5% CO2, and 10 μl of 3-(4,5-dimethylthiazol-2-yl)-2,5-diphenyltetrazolium bromide reagent was added to each well, followed by reaction for 1 hour. After the reaction was completed, the reagent was removed, 200 μl of dimethyl sulfoxide was added to each well, and the absorbance was measured to confirm cell viability.

H1975 cells [3] = assay: ADP-ribose level by ELISA in H1975 cells; settings: 0.2-32 μM peptide, 24 hours
Method: as §1
5×10^5 H1975 cells were divided into a group not treated with the peptide of Example and a group treated with 0.2, 1, 2, 4, 8, 16, and 32 μM of the peptide of Example 2 (SEQ ID NO: 2), and cultured for 24 hours under conditions of 37° C. and 5% CO2 in RPMI-1640 medium supplemented with 10% FBS, 100 units/ml penicillin, and 100 μg/ml streptomycin. The medium of the cultured cells was removed, and the samples were treated with RIPA buffer and 1% SDS. The prepared supernatant was used for ELISA analysis to detect and analyze ADP-ribose.

H1975 cells [4] = assay: Cell viability (MTT, photomicrographs) in H1975 cells; settings: 16 μM peptide, 24 hours
Method: as §2, with “H1975” for “Aspc-1”

MDA-MB-231 cells = assay: Cell viability (MTT, photomicrographs) in MDA-MB-231 cells; settings: 16 μM peptide, 24 hours
Method: as §2, with “culturing 3×10^3 MDA-MB-231 cells in” for “culturing 3×10^3 Aspc-1 cells in”, “and 5% C02, the cells” for “and 5% CO2, the cells”

Hep G2 cells = assay: Cell viability (MTT, photomicrographs) in Hep G2 cells; settings: 16 μM peptide, 24 hours
Method: 2-4. Change in viability in Hep G2 cells according to treatment with ADP-ribose binding peptide After culturing 3×10^3 Hep G2 cells in a 96-well plate for 24 hours under conditions of 37° C. and 5% CO2, the cells were either untreated or treated with the peptides of Examples 1 to 28 at a concentration of 16 μM, respectively. Then, the cells were cultured for 24 hours under conditions of 37° C. and 5% CO2, and 10 μl of 3-(4,5-dimethylthiazol-2-yl)-2,5-diphenyltetrazolium bromide reagent was added to each well, followed by reaction for 1 hour. After the reaction was completed, the reagent was removed, 200 μl of dimethyl sulfoxide was added to each well, and the absorbance was measured to confirm cell viability.

Caki-1 cells = assay: Cell viability (MTT, photomicrographs) in Caki-1 cells; settings: 16 μM peptide, 24 hours
Method: as §2, with “Caki-1” for “Aspc-1”

HCT116 cells = assay: Cell viability (MTT, photomicrographs) in HCT116 cells; settings: 16 μM peptide, 24 hours
Method: as §2, with “HCT116” for “Aspc-1”

U-87MG cells [5] = assay: Cell viability (MTT, photomicrographs) in U-87MG cells; settings: 16 μM peptide, 24 hours
Method: as §2, with “U-87MG” for “Aspc-1”

U-87MG cells [6] = assay: ADP-ribose level by ELISA in U-87MG cells; settings: 0.2-32 μM peptide, 24 hours
Method: as §1
5×10^5 U-87MG cells were divided into a group not treated with the peptide of Example and a group treated with 0.2, 1, 2, 4, 8, 16, and 32 μM of the peptide of Example 1 (SEQ ID NO: 1) or Example 8 (SEQ ID NO: 8), and cultured for 24 hours under conditions of 37° C. and 5% CO2 in Eagle's minimum essential medium (EMEM) supplemented with 10% FBS, 100 units/ml penicillin, and 100 μg/ml streptomycin. The medium of the cultured cells was removed, and the samples were treated with RIPA buffer and 1% SDS. The prepared supernatant was used for ELISA analysis to detect and analyze ADP-ribose.

Sequence: APYIIDLPSWTQFRQDIGTMRAVRR (APYIIDLPSWTQFRQDTGTMRAVRR; ADP-ribose binding peptide) [Example 3]
- amount of increase in ADP-ribose (fold change) compared to the control group (Aspc-1 cells [1]): significant increase in the amount of ADP-ribose in a concentration-dependent manner
- cancer cell growth and survival (Aspc-1 cells [2]): inhibited from growing and killed

Sequence: APYIIDLQSMNQFRQDIGTLRPVRR (APYIIDLQSMNQFRQDTGTLRPVRR; ADP-ribose binding peptide) [Example 2]
- amount of increase in ADP-ribose (fold change) compared to the control group (H1975 cells [3]): significant increase in the amount of ADP-ribose in a concentration-dependent manner
- cancer cell growth and survival (H1975 cells [4]): inhibited from growing and killed

Sequence: GRKKRRQRRRPQAPYIIDLPSWTQFRQDIGTMRAVRR (GRKKRRQRRRPQAPYIIDLPSWTQFRQDTGTMRAVRR; ADP-ribose binding peptide with CPP) [Example 17]
- cancer cell growth and survival (Aspc-1 cells [2]): completely killed

Sequence: GRKKRRQRRRPQAPYIIDLQSMNQFRQDTGTLRPVRR (ADP-ribose binding peptide with CPP) [Example 16]
- cancer cell growth and survival (H1975 cells [4]): completely killed

Sequence: GRKKRRQRRRPQFCYLIYENSMSQMNRQTRRRRRLRR (GRKKRRQRRRPQFCYLIYFNSMSQMNRQTRRRRRLRR; ADP-ribose binding peptide with CPP) [Example 19]
- cancer cell growth and survival (MDA-MB-231 cells): completely killed

Sequence: GRKKRRQRRRPQFLYVADLENMVQYRRNEHGRRRKIKR (ADP-ribose binding peptide with CPP) [Example 25]
- cancer cell growth and survival (Hep G2 cells): completely killed

Sequence: GRKKRRQRRRPQFSYKIDFAEMKQMNLTTGKQRLIKR (ADP-ribose binding peptide with CPP) [Example 21]
- cancer cell growth and survival (Caki-1 cells): completely killed

Sequence: GRKKRRQRRRPQFSYVIDENTMGQINRQTQRQRRVRR (GRKKRRQRRRPQFSYVIDFNTMGQINRQTQRQRRVRR; ADP-ribose binding peptide with CPP) [Example 20]
- cancer cell growth and survival (HCT116 cells): completely killed

Sequence: GRKKRRQRRRPQGRYDVHLGERMRYAVYWDELASEVRR (ADP-ribose binding peptide with CPP) [Example 27]
- cancer cell growth and survival (HCT116 cells): completely killed

Sequence: GRKKRRQRRRPQRHYTVNLNTYTATDTKGHSLSVQR (ADP-ribose binding peptide with CPP) [Example 26]
- cancer cell growth and survival (MDA-MB-231 cells): completely killed

Sequence: GRKKRRQRRRPQRRYTVQFTTMVQVNEETGNRRPVM (ADP-ribose binding peptide with CPP) [Example 23]
- cancer cell growth and survival (H1975 cells [4]): completely killed

Sequence: GRKKRRQRRRPQRVYTIDENSMQQINEDTGTARAIQR (GRKKRRQRRRPQRVYTIDFNSMQQINEDTGTARAIQR; ADP-ribose binding peptide with CPP) [Example 18]
- cancer cell growth and survival (Hep G2 cells): completely killed

Sequence: GRKKRRQRRRPQTAYEASVCDYLEQQVARGN (ADP-ribose binding peptide with CPP) [Example 28]
- cancer cell growth and survival (Caki-1 cells): completely killed

Sequence: GRKKRRQRRRPQVPYIIDLQSMHQFRQDIGTMRPVRR (GRKKRRQRRRPQVPYIIDLQSMHQFRQDTGTMRPVRR; ADP-ribose binding peptide with CPP) [Example 15]
- cancer cell growth and survival (U-87MG cells [5]): completely killed

Sequence: GRKKRRQRRRPQWIWYWKNESGTWIQYGEEKDKRKN (ADP-ribose binding peptide with CPP) [Example 24]
- cancer cell growth and survival (Aspc-1 cells [2]): completely killed

Sequence: GRKKRRQRRRPQYNYTVNYTTHTQTNKTSSFCRSVRR (ADP-ribose binding peptide with CPP) [Example 22]
- cancer cell growth and survival (U-87MG cells [5]): completely killed

Sequence: RRYTVQFTTMVQVNEETGNRRPVM (ADP-ribose binding peptide) [Example 9]
- amount of increase in ADP-ribose (fold change) compared to the control group (H1975 cells [3]): significant increase in the amount of ADP-ribose in a concentration-dependent manner
- cancer cell growth and survival (H1975 cells [4]): inhibited from growing and killed

Sequence: VPYIIDLQSMHQFRQDIGTMRPVRR (VPYIIDLQSMHQFRQDTGTMRPVRR; ADP-ribose binding peptide) [Example 1]
- cancer cell growth and survival (U-87MG cells [5]): inhibited from growing and killed
- amount of increase in ADP-ribose (fold change) compared to the control group (U-87MG cells [6]): significant increase in the amount of ADP-ribose in a concentration-dependent manner

Sequence: WIWYWKNESGTWIQYGEEKDKRKN (ADP-ribose binding peptide) [Example 10]
- amount of increase in ADP-ribose (fold change) compared to the control group (Aspc-1 cells [1]): significant increase in the amount of ADP-ribose in a concentration-dependent manner
- cancer cell growth and survival (Aspc-1 cells [2]): inhibited from growing and killed

Sequence: YNYTVNYTTHTQTNKTSSFCRSVRR (ADP-ribose binding peptide) [Example 8]
- cancer cell growth and survival (U-87MG cells [5]): inhibited from growing and killed
- amount of increase in ADP-ribose (fold change) compared to the control group (U-87MG cells [6]): significant increase in the amount of ADP-ribose in a concentration-dependent manner
